One may read the viability as a read-out of living cells in per cent, often relative to untreated cells. A higher viability goes with better survival.

Data on three compounds can be found in patent US6663859B2, “Compositions for enhancing the immune response” (Bioenergy, Inc., priority 2000, dated 2003).

Data set [1] is described as follows: Viability of HL-60 cells (trypan dye exclusion). Type of data set: cell-based, human. Conditions: human, HL-60 cells; for viability at 96 h: Table 1, 96 h incubation, RA 1.0 μmol/L, ribose 10 mmol/L. An excerpt:
(§1) For the in vitro studies, HL-60 cells (American Type Culture Collection, Manassas, Va.), an immortal human lymphocyte cell line, at approximately passage twenty were maintained between 2.0×10^5 cells/ml in RPMI 1640 medium containing HEPES buffer (Cellgro, Mediatech Inc., Herdon, Va.), 2 mmol/L L-glutamine (Cellgro), 1% antimycotic (Cellgro), 10% heat treated fetal bovine serum (FBS: GibcoBRL; Life Technologies, Baltimore, Md.), and 0.1% gentamicin (GibcoBRL).
(§2) Experimental flasks were initiated at a concentration of 2.5×10^5 cells/ml. Differentiation of HL-60 cells was induced using all-trans retinoic acid (RA) prepared in 95% ethanol. RA was added to flasks at a concentration of 1.0 μmol/L such that the ethanol concentration added to the flask was less than 0.1%. D-Ribose preparations were made by dissolving powdered ribose (Bioenergy, Minneapolis, Minn.) in RPMI medium followed by sterile filtration.
(§3) The specificity of ribose, time and dose response was examined. The doses of ribose were 1, 5, 10, 25 and 50 mmol/L. In experiments in which one concentration of ribose was used, 10 mmol/L was the dose chosen. The effect of timing of the dose was explored by adding ribose at various times after the addition of the retinoic acid. Specificity was examined by substituting glucose, to eliminate the nonspecific effects of ribose as a substrate for glycolysis or gluconeogenesis, or change in osmolarity.
(§4) Following ninety-six hours of incubated (or as specified), cells were harvested, counted by hemocytometer and viability assessed using trypan dye exclusion. For growth and viability determinations, cells were counted three times within one experiment. Results shown were from at least three experiments. Cells were washed twice with phosphate buffered salt solution (PBS) and brought to a concentration of 2.0×10^7 cells/ml PBS.

Data set [2] deals with HL-60 cells. In words: Viability of HL-60 cells (trypan dye exclusion). Type of data set: cell-based, human. Conditions: summary of Table 1.
From the text: as §1, §2, §3, §4

Another data set has as its system thymus cells. As to the kind of experiment: PHA-stimulated thymus cell proliferation (tritiated thymidine). Type of data set: cell-based, mouse. Here is the method:
(§5) Mice are the species of choice for studies of the immune response because of the numerous nutritional and interventional studies that have been performed on mice. Details of its immune response are well studied and the inbred lines used eliminate any genetic differences. Spleens and thymus were removed from weanling Swiss ICR mice and cell suspensions prepared. The spleen and thymus cells were plated in a 96-well plate and various levels of ribose added to each well in triplicate. Phytohaemagglutinin (PHA), a T-cell stimulator, was added and the cells incubated for 48 hours. Tritiated Thymidine was then added, the cells harvested 24 hours later, and radioactivity incorporated was determined by liquid scintillation counting.

The conditions of data set [3]: healthy males; U.S. Pat. No. 6,159,942; cited from earlier work.
Data set [4] concerns HL-60 cells. As to the kind of experiment: Cell surface markers of maturity (CD11b, CD117) on HL-60 cells. The data set is classed as cell-based, human. The conditions noted are these: for expression of cell surface marker reactive with CD11b antibody: FIG. 1. Here is the method:
Cell samples for the detection of cell surface molecules were prepared for flow cytometry in 12×17 mm capped conical tubes. To each tube, 30 μl of PBS containing 2% FBS was added. To each of triplicate tubes, a phycoerythrin (PE) labeled antibody (PharMingen, San Diego, Calif.) was added: 20 μl of CD1 lb, 20 μl of CD117, or 20 μl of isotype control (Mouse IgG1,κ). Fifty microliters of prepared cell suspension were added to each tube, followed by gentle mixing. Tubes were placed on ice for forty-five minutes after which 2 ml of cold PBS containing 2% FBS were added to each tube. Tubes were centrifuged (Jouann, at 300×g for 10 minutes) at approximately 5° C. and supernatant removed. One ml of cold 0.5% paraformaldehyde solution was added to the pellet and tubes were vortexed immediately. Prior to analysis, fixed cells were stored in the dark at approximately 4° C. for a period no longer than one week. Samples were analyzed on FACScan. Data were analyzed using WinMDI Software (Scripps Institute, build 1301-19-200, San Diego, Calif.).
Differentiation is accompanied by changes in the surface markers CD117 and CD11b. CD117 is a tyrosine kinase receptor that is expressed in high quantities on undifferentiated cells, while CD11b is a cell adhesion molecule expressed in high quantities on differentiated cells. After harvest, aliquots of the ribose and glucose control cells were allowed to differentiate with retinoic acid as above. An ELISA assay was set up with antibodies against CD117 or CD11b.

The subject of data set [5] is HL-60 cells. In words: Respiratory burst (superoxide anion, ferricytochrome c reduction, PMA stimulated). Type of data set: cell-based, human. The conditions noted are these: for increase in rate of superoxide generation compared to HL-60 control cells: FIG. 3. Here is the method: Specific cells undergo an increase in oxygen uptake when presented with appropriate stimuli, such as invading microorganisms or phorbol ester. The cells utilize this oxygen to produce a series of free radicals that kill the invading microorganism. Production of free radicals occurs via an enzyme called NADPH oxidase. Free radical production is measured spectrophotometrically by a change in color of ferricytochrome c.
The ability of cells to produce superoxide anion was measured by the reduction of ferricytochrome c via a microtiter plate (Levy et al (1990)). Fifty microliters of cells (1×10^7 cells/ml) previously incubated with retinoic acid, ribose or glucose were plated in triplicate wells of a microtiter plate. Each well contained 10 μl of 1.5 mol/L ferricytochrome c substrate and 100 μl of DPBD containing 1 mmol/L glucose. Cells were stimulated to produce superoxide anion by addition of 10 μl of 1.6 μmol/L phorbol 12-myristate 13-acetate (PMA). A kinetic reading on dual wavelengths of 540-490 nM was taken using a Molecular Devices microtiter plate reader (UVMax, Menlo Park, Calif.). Change in absorbance was measured over ten minutes. In order to ensure that reduction of ferricytochrome was the result of superoxide anion, experimental samples were incubated with 10 μl of bovine erythrocyte superoxide dismutase (7500 units/ml). […] Respiratory burst was expressed as the change in optical density/10^6 cells.

Data set [6] relates to HL-60 cells. As to the kind of experiment: Cellular proliferation of HL-60 cells (hemocytometer count). The data set is classed as cell-based, human. Conditions: for reduction in cell growth compared to control HL-60 cells: 96-hour incubation; for Cell Growth (10^5 cells/ml): Table 1, 96 h incubation, initial 2.5×10^5 cells/ml, RA 1.0 μmol/L, ribose 10 mmol/L; for change in cell number over the 96-hour incubation period: initial cell density 2.5×10^5.
From the text: as §1, §2, §3, §4

The subject of data set [7] is HL-60 cells. In words: ATP determination in HL-60 cells. Type of data set: cell-based, human. Conditions: HL-60 control about five μmoles per 10^9 cells. Here is the method:
Determination of ATP was performed using a kit purchased from Sigma Diagnostics (St. Louis, Mo.) with slight modifications. 1.0 ml of 12% trichloroacetic acid (TCA) and 1.0 ml of prepared cell suspension (1×10^7 cells/ml) were combined, vortexed and placed on ice for five minutes. Tubes were then centrifuged (Jouann, at 2000×g for 8 minutes) to obtain a clear supernatant. The following reagents were then added into vials containing 0.3 mg NADH: 1.0 ml phosphoglyceraldehyde buffered solution, 1.5 ml water, and 0.15 ml cell supernatant. Samples were distributed into two tubes. One tube was used to obtain an initial spectrophotometric absorbance at 340 nm. Fifteen μl of GAPD/PGK enzyme mixture were added to the second tube and read after ten minutes. Changes in absorbance were calculated and results were expressed as μmol of ATP per 1×10^9 cells.

For data set [8] the following is noted: as much as 20 gm; cited from earlier work.
Another data set concerns weanling Swiss ICR mice. As to the kind of experiment: In vivo loading with ribose, planned immune response and pathogen challenge studies. Further details: species or system mouse. The conditions noted are these: expected result. The source says:
For the in vivo studies, weanling Swiss ICR mice (three weeks old) were fed a fully nutritious, casein-based diet (AIN 93G).
This pilate study will be followed by a broader study with ten animals per groups. Popliteal lymphoproliferation, delayed-type hypersensitivity (DTH) and thymic and splenic lymphocyte proliferation will be tested. To determine popliteal lymphoproliferation, the popliteal node will be excised and weighed after antigen injection into the hind-leg footpad. DTH can be assessed by measuring ear swelling after sensitization and stimulation with the prop antigen dinitrofluorobenzene. Thymic and splenic proliferation will be determined from cells isolated from the thymus and spleen and pulsed with tritiated thymidine. These four measures are all T-cell responses.
Another group of animals will be fed as above. […] T-cell numbers, proliferation and migration, B-cell numbers, NK cell numbers and migration, neutrophil numbers, migration and oxidative burst will be determined. […] Cells will be quantitated by flow cytometry, oxidative burst will be determined spectrophotometrically and proliferation by incorporation of tritiated thymidine. Cell migration will be determined by flow cytometry as the percentage of cells. In addition, the activity of myeloperoxidase, a degradative enzyme specific to neutrophils, can be measured in lung tissue to determine this cell's migration. […]

The next data set concerns various cell cultures. Conditions: 12.5 to 50 mM; Marini et al 1985; cited from earlier work.
A further data set relates to spleen cells. As to the kind of experiment: PHA-stimulated spleen cell proliferation (tritiated thymidine). Type of data set: cell-based, mouse. Here is the method: as §5
[9] abbreviates: 10 mM ribose, cells differentiated with retinoic acid.

In data set [1], `O=C[C@H](O)[C@H](O)[C@H](O)CO` [D-Ribose] came in with a viability at 96 h of 86.3%. In the data set on HL-60 cells [2], the “change in viability versus control” value was “slight reductions in viability”. Further, in the data set with thymus cells (low levels of ribose), the thymus cell proliferation entry is “slight, but non-significant stimulation”. Besides, the thymus cell proliferation entry in the data set on thymus cells (ribose above 5 mM) was “tended to inhibit proliferation”. For the same compound, the “energy level (skeletal muscle ATP, power output)” value in data set [3] was “enhances the energy level”. Further, in the data set with HL-60 cells [4] (setting [9]), the “increase in CD11b” value is reported as “threefold increase” and the “reduction in CD117” value came out at 30%. For the same compound, the “expression of cell surface marker reactive with CD11b antibody” value in the data set on HL-60 cells [4] (ribose added to RA) is “increased further”. Moreover, the “immature cell surface marker recognized by CD117 antibody” value in the data set on HL-60 cells [4] (FIG. 2, ribose added to RA) is recorded as “reduced”. In addition, the “increase in rate of superoxide generation compared to HL-60 control cells” value with HL-60 cells [5] is listed as “no significant increase”. In addition, in the data set with HL-60 cells [6], the “reduction in cell growth compared to control HL-60 cells” value stood at 30%, the “Cell Growth (10^5 cells/ml)” value was 6.68 +/− 1.29 10^5 cells/ml and the “change in cell number over the 96-hour incubation period” value is listed as “nearly tripled in number”. For the same compound, in the data set with HL-60 cells [7], the “change in ATP concentration versus HL-60 control” value is “slightly increased”. The tolerability result in data set [8] is listed as “well tolerated”. Moreover, the “immune response parameters after diet supplementation and pathogen challenge” value in the data set on weanling Swiss ICR mice is given as “benefit the immune response”. Besides, the “effect on incorporation of tritiated thymidine / metabolic processes” value with various cell cultures was “deeply derange metabolic processes”. The spleen cell proliferation result in the data set on spleen cells (low levels of ribose) is “slight, but non-significant stimulation”. Besides, the spleen cell proliferation entry in the data set with spleen cells (ribose above 5 mM) was “tended to inhibit proliferation”.
In data set [1], `CC1=C(/C=C/C(C)=C/C=C/C(C)=C/C(=O)O)C(C)(C)CCC1` [RA, all-trans retinoic acid] came in with a viability at 96 h of 84.5%. This compound had a viability at 1 μmol/L in data set [1] (Table 2, mean ± SD, n = 5) of 82.6 ± 3.3%. Further, the “change in viability versus control” value in the data set with HL-60 cells [2] is “slight reductions in viability”. Also, in the data set on HL-60 cells [4] (ribose added to RA), the “expression of cell surface marker reactive with CD11b antibody” value was “high level of expression”. Besides, in the data set on HL-60 cells [4] (Table 2, immature cell marker, mean ± SD, n = 5), the “CD117 (%)” value was 33.4 ± 9.5^A %. Also, the “CD11b (%)” value in the data set with HL-60 cells [4] (Table 2, mature cell marker, mean ± SD, n = 5) is 35.7 ± 7.5^B %. For the same compound, the “increase in rate of superoxide generation compared to HL-60 control cells” value in the data set with HL-60 cells [5] is on record as 5.5 fold. Also, the “Respiratory Burst (% of RA control)” value with HL-60 cells [5] (Table 2, mean ± SD, n = 5) is on record as 100^B % of RA control. In addition, in the data set with HL-60 cells [6], the “reduction in cell growth compared to control HL-60 cells” value was found to be 30%, the “Cell Growth (10^5 cells/ml)” value was 7.01 +/− 2.14 10^5 cells/ml and the “change in cell number over the 96-hour incubation period” value is listed as “nearly tripled in number”. This compound also showed a Growth (cell/ml) with HL-60 cells [6] (Table 2, mean ± SD, n = 5) of 727000 ± 102000 cells/mL.
With `[2H]C(=O)C[C@H](O)[C@H](O)CO` [deoxy-D-Ribose, reference compound], the “effect on incorporation of tritiated thymidine / metabolic processes” value in the data set with various cell cultures was “deeply derange metabolic processes”.
